One test addresses T1, Matrix metalloprotease 2 (Homo sapiens, UniProt P08253).
T1 sequence (P08253 110-660): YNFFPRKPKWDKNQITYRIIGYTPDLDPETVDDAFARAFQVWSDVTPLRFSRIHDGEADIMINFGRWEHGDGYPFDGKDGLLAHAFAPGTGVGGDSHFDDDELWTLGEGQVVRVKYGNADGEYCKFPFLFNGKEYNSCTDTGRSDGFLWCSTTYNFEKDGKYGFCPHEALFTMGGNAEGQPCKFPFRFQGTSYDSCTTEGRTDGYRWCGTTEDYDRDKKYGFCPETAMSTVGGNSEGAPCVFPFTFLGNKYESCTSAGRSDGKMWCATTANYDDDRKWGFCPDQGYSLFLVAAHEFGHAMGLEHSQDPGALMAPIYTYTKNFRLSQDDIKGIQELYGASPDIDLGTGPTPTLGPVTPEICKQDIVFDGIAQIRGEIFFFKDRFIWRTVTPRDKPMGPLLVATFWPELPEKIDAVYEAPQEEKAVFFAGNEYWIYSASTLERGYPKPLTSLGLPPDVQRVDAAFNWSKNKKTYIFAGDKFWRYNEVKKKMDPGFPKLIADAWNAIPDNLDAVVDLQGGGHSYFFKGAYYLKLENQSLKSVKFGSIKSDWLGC
As to conditions: 100 nM.

Another test has as its target T2, Matrix metalloprotease1 (Homo sapiens, UniProt P03956).
T2 sequence (P03956 100-469): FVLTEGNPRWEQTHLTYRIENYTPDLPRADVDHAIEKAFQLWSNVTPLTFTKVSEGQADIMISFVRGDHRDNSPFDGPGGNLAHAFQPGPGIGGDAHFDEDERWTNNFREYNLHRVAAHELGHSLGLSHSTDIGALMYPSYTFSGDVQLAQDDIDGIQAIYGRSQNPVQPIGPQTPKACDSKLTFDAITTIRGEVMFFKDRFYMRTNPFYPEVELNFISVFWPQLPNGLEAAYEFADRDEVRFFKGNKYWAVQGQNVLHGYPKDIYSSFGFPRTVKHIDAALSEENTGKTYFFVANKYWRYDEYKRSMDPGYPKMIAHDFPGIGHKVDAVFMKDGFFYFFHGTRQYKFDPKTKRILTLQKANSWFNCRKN
As to conditions: 1 μM.

Test [1] addresses T3, Matrix metalloprotease 9 (mutant Q279R) (Homo sapiens, UniProt P14780, Q279R).
T3 sequence (P14780 94-707 Q279R): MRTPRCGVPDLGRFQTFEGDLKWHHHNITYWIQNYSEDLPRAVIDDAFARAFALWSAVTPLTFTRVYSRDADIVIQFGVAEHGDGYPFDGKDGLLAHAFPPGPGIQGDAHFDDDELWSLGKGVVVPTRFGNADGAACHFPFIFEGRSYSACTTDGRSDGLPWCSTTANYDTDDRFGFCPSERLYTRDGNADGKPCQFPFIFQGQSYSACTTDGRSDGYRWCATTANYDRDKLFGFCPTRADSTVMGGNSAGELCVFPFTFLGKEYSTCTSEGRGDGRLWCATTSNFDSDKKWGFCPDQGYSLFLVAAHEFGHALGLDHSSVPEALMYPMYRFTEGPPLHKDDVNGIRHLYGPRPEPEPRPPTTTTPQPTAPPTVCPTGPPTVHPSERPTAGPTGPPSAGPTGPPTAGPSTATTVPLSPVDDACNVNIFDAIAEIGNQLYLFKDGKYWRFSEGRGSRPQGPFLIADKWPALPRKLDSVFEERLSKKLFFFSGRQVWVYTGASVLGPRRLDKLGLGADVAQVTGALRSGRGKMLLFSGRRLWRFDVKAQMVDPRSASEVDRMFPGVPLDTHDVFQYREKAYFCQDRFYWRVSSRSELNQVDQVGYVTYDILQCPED
As to conditions: 100 nM.

Experimental findings from patent publication US12427210B2, “Compounds comprising a fibroblast activation protein ligand and use thereof” (priority 2019, dated 2025) are described below.

The structures appear in SMILES notation.

Regarding `COc1ccc(S(=O)(=O)N(CC(=O)NO)CC(C)C)cc1` [NNGH], the entries for the “Percentage inhibition (%), Reference” value (on Matrix metalloprotease 2; on Matrix metalloprotease1; in test [1]) were 95%, 87% and 92%, respectively.
